Experimental data: patent US20130203861A1, “METHODS AND COMPOSITIONS FOR TREATING OVARIAN CANCER” (GOLDEN BIOTECHNOLOGY CORPORATION, priority 2009, published 2013)
≈ marks a conversion by molar mass, not a printed value.

System: ovarian cancer cell line ES-2
Experiment: MTT assay for anti-ovarian cancer (cell survival)
Type: cell-based
Settings: Homo sapiens, ES-2 cells, 48 hours treatment, absorbance at 570 nm, read-out: IC50 (half inhibition concentration), inhibition of ovarian cancer cells
Experimental: Exemplary Compound 1 was added into the culture media of ovarian cancer cell line ES-2 (a human ovarian cancer cell line) to determine the survival rates. Survival of cells was analyzed using MTT assay. Other suitable human ovarian cancer cell lines may be used by a skilled person in the art.
MTT assay is commonly used to analyze cell proliferation, survival rate of viable cells and cytotoxicity. MTT (3[4,5-dimethylthiazol-2-yl]-2,5-diphenyltetrazolium bromide) is a yellow dye which can be converted to water-insoluble purple formazan on the reductive cleavage of its tetrazolium ring by the succinate tetrazolium reductase in mitochondria of cells. The amount of formazan produced is used to detect the number of viable cells and calculate the survival rates.
The ES-2 cells were cultivated in McCoy' 5 A medium supplemented with 10% fetal bovine serum, 10 U/ml of Penicillin and 100 μg/ml of Streptomycin at 37° C., 5% CO2 for 24 hours. Proliferated cells were washed once with PBS, treated with 1× trypsin-EDTA, and centrifuged at 1200 rpm for 5 min. The supernatant was removed and the cell pellet was resuspended in 10 ml of fresh medium by gently shaking. Cells were seeded onto 96-well plates. […] The absorbances were measured at 570 nm with an ELISA Reader to determine the survival rates.

Question: For COC1=C(OC)C(O)C(C/C=C(\C)CC/C=C(\C)CCC=C(C)C)C(C)C1=O (stereo not shown) [Compound 1, 4-hydroxy-2,3-dimethoxy-6-methyl-5-(3,7,11-trimethyldodeca-2,6,10-trienyl)cyclohex-2-enone], which IC50 is on record?
Answer: The IC50 was 0.8 µg/mL (≈ 2.05 µM).
